What was measured:
[1] = tested on: cultured human mast cells (CHMC); experiment: CHMC low cell density ionomycin activation: tryptase assay; type: cell-based
[2] = tested on: cultured human mast cells (CHMC); experiment: CHMC low cell density IgE activation: tryptase assay; type: cell-based; conditions: anti-IgE
In short: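 Low-density CHMC assay: donor-adjusted 1000-1500 cells/well, MT buffer, 1 hr 37° C preincubation; anti-IgE stimulus 30 min 37° C versus MT-only controls; supernatant tryptase by substrate, 30 min RT.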

| SMILES | IC50 [1] | IC50 [2] |
| --- | --- | --- |
| CCOC(=O)C(C)(C)c1ccc(Nc2nc(Nc3ccc4c(c3)OCCO4)ncc2F)cc1 [R935172] | 6.81 µM | 1.39 µM |
| CNC(=O)COc1cccc(Nc2ncc(F)c(Nc3ccc(C)c(C(F)(F)F)c3)n2)c1 [R926922, 5-Fluoro-N2-[3-[(N-methylamino)carbonylmethyleneoxy]phenyl]-N4-(4-methyl-3-trifluoromethylphenyl)-2,4-pyrimidinediamine] | > 10 µM | 0.305 µM |
| COCc1cc(=O)oc2cc(Nc3ncc(F)c(Nc4ccc5c(COC)cc(=O)oc5c4)n3)ccc12 [R926620] | > 10 µM | 8.35 µM |
| Cc1nc(COc2cccc(Nc3ncc(F)c(Nc4ccc(OC(C)C)cc4)n3)c2)no1 [R945129, 5-Fluoro-N4-(4-isopropoxyphenyl)-N2-[3-(5-methyl-1,2,4-oxadiazol-3-yl)methyleneoxyphenyl]-2,4-pyrimidinediamine] | > 10 µM | 1 µM |
| CCOC(=O)C(C)(Oc1cccc(Nc2nc(Nc3ccc(OC(C)C)cc3)ncc2F)c1)C(=O)OCC [R935187, N4-[3-(1-Bis(ethoxycarbonyl)ethoxy)phenyl]-5-fluoro-N2-[4-isopropoxyphenyl)-2,4-pyrimidinediamine] | > 10 µM | 9.06 µM |
| OCCOc1cccc(Nc2ncc(CO)c(Nc3cccc(O)c3)n2)c1 [R926735, 5-(Hydroxymethyl)-N2-[3-(2-hydroxyethyleneoxy)phenyl]-N4-(3-hydroxyphenyl)-2,4-pyrimidinediamine] | > 10 µM | 3.71 µM |
| CON=C(N)COc1ccc(Nc2ncc(F)c(Nc3ccc(OCC(N)=NOC)cc3)n2)cc1 [R945096, N2,N4-Bis[4-[2-methoxyimino(amino)ethyleneoxy]phenyl]-5-fluoro-2,4-pyrimidinediamine] | > 10 µM | 1.75 µM |
| O=C(CNc1cccc(Nc2ncc(F)c(Nc3cccc(NCCO)c3)n2)c1)N1CCOCC1 [R950236, 5-Fluoro-N4-[3-(2-hydroxyethylamino)phenyl]-N2-[3-(N-morpholino)carbonylmethyleneaminophenyl]-2,4-pyrimidinediamine] | > 10 µM | 0.955 µM |
| COc1ccc(Nc2nc(NC3CCN(Cc4ccccc4)CC3)ncc2F)cc1OC [R940263, N2-[4-(N-Benzylpiperidino)]-N4-(3,4-dimethoxyphenyl)-5-fluoro-2,4-pyrimidinediamine] | > 10 µM | > 10 µM |
| CNC(=O)COc1cccc(Nc2ncc(F)c(Nc3ccc4c(c3)C(O)CCO4)n2)c1 (stereo not shown) [R950349, N4-(4-Hydroxy-3,4-dihydro-2H-1-benzopyran-6-yl)-5-fluoro-N2-[3-(N-methylamino)carbonylmethyleneoxyphenyl]-2,4-pyrimidinediamine] | > 10 µM | 0.078 µM |
| CNC(=O)COc1cccc(Nc2ncc(F)c(Nc3ccc(OC)c(O)c3)n2)c1 [R926834, 5-Fluoro-N4-(3-hydroxy-4-methoxyphenyl)-N2-[3-(N-methylamino)carbonylmethyleneoxyphenyl]-2,4-pyrimidinediamine] | > 10 µM | 0.145 µM |
| Cc1cnc(Nc2ccc(OCc3nnn(C)n3)cc2)nc1Nc1cccc(O)c1 [R920893, N4-(3-Hydroxyphenyl)-5-methyl-N2-[4-(2-methyl-1,2,3,4-tetrazol-5-yl)methyleneoxyphenyl]-2,4-pyrimidineamine] | > 10 µM | 1.24 µM |
| CCOC(=O)COc1cccc(Nc2ncc(C(=O)OCC)c(Nc3ccc4c(c3)OC(F)(F)C(F)(F)O4)n2)c1 [R926799, N2-(3-Ethoxycarbonylmethyleneoxyphenyl)-5-ethoxycarbonyl-N4-(3,4-tetrafluoroethylenedioxyphenyl)-2,4-pyrimidinediamine] | > 10 µM | > 10 µM |
| COC(=O)COc1cccc(Nc2ncc(F)c(Nc3ccc4c(c3)OCCCO4)n2)c1 [R935185, 5-Fluoro-N2-[3-(methoxycarbonylmethyleneoxy)phenyl]-N4-(3,4-propylenedioxyphenyl)-2,4-pyrimidinediamine] | 6.64 µM | 0.351 µM |
